We go through 27 compounds from patent US8071625B2, “Certain chemical entities, compositions, and methods” (Cytokinetics, Inc., priority 2006, dated 2011).

The IC50 is the concentration needed to halve the response being measured.

The target in the assay is T1, crosslinked smooth muscle actomyosin (chicken gizzard smooth muscle myosin subfragment-1 crosslinked to cardiac or skeletal actin) (Gallus gallus, UniProt P10587).
T1 construct: chicken gizzard smooth muscle myosin subfragment-1; from tissue; host or cells: chicken gizzard
The assay can be described thus: Lead optimization pyruvate kinase/horseradish peroxidase/pyruvate oxidase-coupled ATPase assay (compound dose response). The assay is classed as biochemical. To be noted: read-out: IC50 Arithmetic Mean. As to the method:
Screening assays were performed using a pyruvate kinase and lactate dehydrogenase-coupled ATPase assay containing the following reagents: Potassium PIPES (50 mM), MgCl2 (3 mM), KCl (100 mM), ATP (0.15 mM), DTT (1 mM), BSA (0.1 mg/ml), NADH (0.5 mM), PEP (1.5 mM), pyruvate kinase (4 U/ml), lactate dehydrogenase (8 U/ml), and antifoam (50 ppm) (concentrations expressed are final assay concentrations). The pH was adjusted to 6.80 at 22° C. by addition of potassium hydroxide. Lead optimization assays were performed with a more sensitive pyruvate kinase/horseradish peroxidase/pyruvate oxidase-coupled ATPase assay containing the following reagents: Potassium PIPES (12 mM), MgCl2 (2 mM), KCl (100 mM), ATP (0.15 mM), BSA (0.05 mg/ml), potassium phosphate (2 mM), amplex red (0.1 mM), PEP (0.1 mM), pyruvate kinase (4 U/ml), horseradish peroxidase (0.5 U/ml), pyruvate oxidase (0.5 U/ml), and antifoam (50 ppm) (concentrations expressed are final assay concentrations). The pH was adjusted to 7.00 at 22° C. by addition of potassium hydroxide.
The protein components specific to this assay are chicken gizzard smooth muscle myosin subfragment-1 that has been chemically crosslinked to either cardiac or skeletal actin using an excess of 1-Ethyl-3-[3-dimethylaminopropyl]carbodiimide hydrochloride and N-hydroxysuccinimide. The exact concentration of the crosslinked smooth muscle myosin in the assay is determined empirically, by titration to achieve a desired rate of ATP hydrolysis. The concentration varies between protein preparations due to variations in the fraction of active molecules in each preparation.
Compound dose response assays are performed by first preparing a dilution series of test compound, each with an assay mixture containing potassium PIPES, MgCl2, KCl, ATP, BSA, potassium phosphate, amplex red, PEP, crosslinked smooth muscle actomyosin (subfragment-1), antifoam, and water. The assay is started by adding an equal volume of solution containing potassium Pipes, MgCl2, KCl, BSA, potassium phosphate, pyruvate kinase, horseradish peroxidase, pyruvate oxidase, antifoam, and water. ATP hydrolysis is monitored by measuring the fluorescence of amplex red (excitation at 480 nm, emission at 615 nm). The resulting dose response curve is fit by the 4 parameter equation y=Bottom+((Top-Bottom)/(1+((IC50/X)^Hill))). The IC50 is defined as the concentration at which ATPase activity is midway between the top and bottom of the dose response curve.

In the case of `CCc1ccc(NC(=O)OCC2(C(=O)NCc3ccccc3Cl)CCN(C(=O)C(C)(C)N)CC2)cc1` [(1-(2-amino-2-methylpropanoyl)-4-{[N-(4-ethylphenyl)carbamoyloxy]methyl}(4-piperidyl))-N-[(2-chlorophenyl)methyl]carboxamide], the IC50 turned out to be 670 nM. As to `CCc1ccc(NC(=O)OCC2(C(=O)NCc3ccccc3Cl)CCN(C(=O)C(N)CC#N)CC2)cc1` (stereo not drawn) [(1-(2-amino-3-cyanopropanoyl)-4-{[N-(4-ethylphenyl)carbamoyloxy]methyl}(4-piperidyl))-N-[(2-chlorophenyl)methyl]carboxamide], the IC50 came to 797 nM. For `CCc1ccc(NC(=O)OCC2(C(=O)NCc3ccccc3Cl)CCN(C(=O)C(N)CO)CC2)cc1` (stereo not drawn) [(1-(2-amino-3-hydroxypropanoyl)-4-{[N-(4-ethylphenyl)carbamoyloxy]methyl}(4-piperidyl))-N-[(2-chlorophenyl)methyl]carboxamide], the IC50 was determined as 143 nM.

As for `CCc1ccc(NC(=O)OCC2(C(=O)NCc3ccccc3Cl)CCN(C(=O)C(N)C(C)C)CC2)cc1` (stereo not drawn) [(1-(2-amino-3-methylbutanoyl)-4-{[N-(4-ethylphenyl)carbamoyloxy]methyl}(4-piperidyl))-N-[(2-chlorophenyl)methyl]carboxamide], the IC50 was found to be 540 nM.

Take `CCc1ccc(NC(=O)OCC2(C(=O)NCc3ccccc3Cl)CCCN(C(=O)CN)C2)cc1` (stereo not drawn) [(1-(2-aminoacetyl)-3-{[N-(4-ethylphenyl)carbamoyloxy]methyl}(3-piperidyl))-N-[(2-chlorophenyl)methyl]carboxamide]: the IC50 worked out at 474 nM.

With `CCc1ccc(NC(=O)OCC2(C(=O)NCc3ccccc3Cl)CCN(C(=O)CN)C2)cc1` (stereo not drawn) [(1-(2-aminoacetyl)-3-{[N-(4-ethylphenyl)carbamoyloxy]methyl}pyrrolidin-3-yl)-N-[(2-chlorophenyl)methyl]carboxamide], the IC50 amounted to 526 nM. The same measure for `CCc1ccc(NC(=O)OCCC2(C(=O)NCc3ccccc3Cl)CCN(C(=O)CN)CC2)cc1` [(1-(2-aminoacetyl)-4-{2-[N-(4-ethylphenyl)carbamoyloxy]ethyl}(4-piperidyl))-N-[(2-chlorophenyl)methyl]carboxamide]: 2440 nM; for `Cc1ccc(NC(=O)OCC2(C(=O)NCc3ccccc3Cl)CCN(C(=O)CN)CC2)c(Cl)c1` [(1-(2-aminoacetyl)-4-{[N-(2-chloro-4-methylphenyl)carbamoyloxy]methyl}(4-piperidyl))-N-[(2-chlorophenyl)methyl]carboxamide]: 281 nM. The same measure for `Cc1ccc(NC(=O)OCC2(C(=O)NCc3ccccc3Cl)CCN(C(=O)CN)CC2)cc1F` [(1-(2-aminoacetyl)-4-{[N-(3-fluoro-4-methylphenyl)carbamoyloxy]methyl}(4-piperidyl))-N-[(2-chlorophenyl)methyl]carboxamide]: 742 nM; for `NCC(=O)N1CCC(COC(=O)Nc2ccc(Cl)cc2)(C(=O)NCc2ccccc2Cl)CC1` [(1-(2-aminoacetyl)-4-{[N-(4-chlorophenyl)carbamoyloxy]methyl}(4-piperidyl))-N-[(2-chlorophenyl)methyl]carboxamide]: 569 nM; for `N#Cc1ccc(NC(=O)OCC2(C(=O)NCc3ccccc3Cl)CCN(C(=O)CN)CC2)cc1` [(1-(2-aminoacetyl)-4-{[N-(4-cyanophenyl)carbamoyloxy]methyl}(4-piperidyl))-N-[(2-chlorophenyl)methyl]carboxamide]: 7780 nM. With `CCc1ccc(NC(=O)OCC2(C(=O)NCc3ccccc3Cl)CCN(C(=O)CN)CC2)cc1` [(1-(2-aminoacetyl)-4-{[N-(4-ethylphenyl)carbamoyloxy]methyl}(4-piperidyl))-N-[(2-chlorophenyl)methyl]carboxamide] the figure was 175 nM; with `CCc1ccc(NC(=O)OCC2(C(=O)NCc3ccccc3C#N)CCN(C(=O)CN)CC2)cc1` [(1-(2-aminoacetyl)-4-{[N-(4-ethylphenyl)carbamoyloxy]methyl}(4-piperidyl))-N-[(2-cyanophenyl)methyl]carboxamide], 904 nM. `CCc1ccc(NC(=O)OCC2(C(=O)NCc3ccccc3F)CCN(C(=O)CN)CC2)cc1` [(1-(2-aminoacetyl)-4-{[N-(4-ethylphenyl)carbamoyloxy]methyl}(4-piperidyl))-N-[(2-fluorophenyl)methyl]carboxamide]: the IC50 worked out at 307 nM.

With `CCc1ccc(NC(=O)OCC2(C(=O)NCc3ccccc3OC)CCN(C(=O)CN)CC2)cc1` [(1-(2-aminoacetyl)-4-{[N-(4-ethylphenyl)carbamoyloxy]methyl}(4-piperidyl))-N-[(2-methoxyphenyl)methyl]carboxamide], the IC50 came to 2160 nM. With `CCc1ccc(NC(=O)OCC2(C(=O)NCc3ccccc3C)CCN(C(=O)CN)CC2)cc1` [(1-(2-aminoacetyl)-4-{[N-(4-ethylphenyl)carbamoyloxy]methyl}(4-piperidyl))-N-[(2-methylphenyl)methyl]carboxamide], the IC50 worked out at 167 nM. With `CCc1ccc(NC(=O)OCC2(C(=O)NCc3ccccc3)CCN(C(=O)CN)CC2)cc1` [(1-(2-aminoacetyl)-4-{[N-(4-ethylphenyl)carbamoyloxy]methyl}(4-piperidyl))-N-benzylcarboxamide] the figure was 8110 nM; with `CCc1ccc(NC(=O)OCC2(C(=O)NCc3ccccc3CO)CCN(C(=O)CN)CC2)cc1` [(1-(2-aminoacetyl)-4-{[N-(4-ethylphenyl)carbamoyloxy]methyl}(4-piperidyl))-N-{[2-(hydroxymethyl)phenyl]methyl}carboxamide], 949 nM. With `NCC(=O)N1CCC(COC(=O)Nc2ccc(F)cc2)(C(=O)NCc2ccccc2Cl)CC1` [(1-(2-aminoacetyl)-4-{[N-(4-fluorophenyl)carbamoyloxy]methyl}(4-piperidyl))-N-[(2-chlorophenyl)methyl]carboxamide] the figure was 14600 nM; with `Cc1ccc(NC(=O)OCC2(C(=O)NCc3ccccc3Cl)CCN(C(=O)CN)CC2)cc1` [(1-(2-aminoacetyl)-4-{[N-(4-methylphenyl)carbamoyloxy]methyl}(4-piperidyl))-N-[(2-chlorophenyl)methyl]carboxamide], 191 nM; with `NCC(=O)N1CCC(COC(=O)Nc2ccc(-c3ccccc3)cc2)(C(=O)NCc2ccccc2Cl)CC1` [(1-(2-aminoacetyl)-4-{[N-(4-phenylphenyl)carbamoyloxy]methyl}(4-piperidyl))-N-[(2-chlorophenyl)methyl]carboxamide], 277 nM. As for `CCc1ccc(NC(=O)OCC2(C(=O)NCc3ccccc3Cl)CCN(CCN)CC2)cc1` [(1-(2-aminoethyl)-4-{[N-(4-ethylphenyl)carbamoyloxy]methyl}(4-piperidyl))-N-[(2-chlorophenyl)methyl]carboxamide], the IC50 is 1160 nM. `CCc1ccc(NC(=O)OCC2(C(=O)NCc3ccccc3Cl)CCN(C(=O)C(O)CN)CC2)cc1` (stereo not drawn) [(1-(3-amino-2-hydroxypropanoyl)-4-{[N-(4-ethylphenyl)carbamoyloxy]methyl}(4-piperidyl))-N-[(2-chlorophenyl)methyl]carboxamide]: the IC50 was 120 nM.

Regarding `CCc1ccc(NC(=O)OCC2(C(=O)NCc3ccccc3Cl)CCN(C(=O)C(O)CCN)CC2)cc1` (stereo not drawn) [(1-(4-amino-2-hydroxybutanoyl)-4-{[N-(4-ethylphenyl)carbamoyloxy]methyl}(4-piperidyl))-N-[(2-chlorophenyl)methyl]carboxamide], the IC50 came to 187 nM.

Turning to `CCc1ccc(NC(=O)OCC2(C(=O)NCc3ccccc3Cl)CCN(C(=O)CCCN)CC2)cc1` [(1-(4-aminobutanoyl)-4-{[N-(4-ethylphenyl)carbamoyloxy]methyl}(4-piperidyl))-N-[(2-chlorophenyl)methyl]carboxamide], the IC50 stood at 246 nM. The same measure for `CCc1ccc(NC(=O)OCC2(C(=O)NCc3ccccc3Cl)CCN(C(=O)[C@H](N)CO)CC2)cc1` [(1-((2R)-2-amino-3-hydroxypropanoyl)-4-{[N-(4-ethylphenyl)carbamoyloxy]methyl}(4-piperidyl))-N-[(2-chlorophenyl)methyl]carboxamide]: 164 nM; for `CCc1ccc(NC(=O)OCC2(C(=O)NCc3ccccc3Cl)CCN(C(=O)[C@@H](C)N)CC2)cc1` [(1-((2R)-2-aminopropanoyl)-4-{[N-(4-ethylphenyl)carbamoyloxy]methyl}(4-piperidyl))-N-[(2-chlorophenyl)methyl]carboxamide]: 255 nM.
